Entries after “also recorded” stand apart in the source; their conditions may differ. Like-named read-outs stand apart in the source and are kept apart here.
What was measured:
NPCs [1] = test: Intraperitoneal administration to pregnant dam carrying homozygous fetuses; format: in vivo, mouse
Text: The CID was intraperitoneally administered to a pregnant dam carrying homozygous fetuses (see FIG. 15). As a result, it was confirmed that the kidney size of the neonates (PO) was reduced and the cap mesenchyme structure, which constitutes the nephrogenic niche formed by NPCs, was disrupted (see FIG. 16). […] Furthermore, a decrease in the number of glomeruli was also confirmed (see FIG. 18).

[2] = test system: Six2-positive nephron progenitor cells; test: Intraperitoneal administration to neonatal Six2-iCaspase9-tdTomato mice, kidneys collected 48 hours later; format: in vivo, mouse
Experimental: AP20187 (CID) was intraperitoneally administered to neonatal Six2-iCaspase9-tdTomato mice prepared in Experimental Example 1, and the […] mouse kidneys were collected 48 hours later.

NPCs [3] = test: Culture of fetal kidney of single allele knock-in (heterozygous) mice with CID and/or AT406; format: cell-based, mouse
[4] = test system: Six2-positive nephron progenitor cells; test: TUNEL staining of organ-cultured E13 fetal kidney of Six2-iCaspase9-tdTomato mouse; format: cell-based; settings: 100 nM CID, 12 hours after administration
Experimental: The kidney was excised from an E13 fetus of the Six2-iCaspase9-tdTomato mouse prepared in Experimental Example 1, and organ culture was performed on a Transwell. Apoptosis was evaluated by TUNEL staining after collection at 12 and 18 hours following the administration of 100 nM CID to the culture medium.

NPCs [5] = test: Subcutaneous administration to homozygous neonatal mice; format: in vivo, mouse
NPCs [6] = test: Culture of kidneys of E13.5 fetuses of both allele knock-in (homozygous) mice with CID; format: cell-based, mouse; settings: 100 nM of CID, homozygous E13.5 fetal kidney culture
Experimental: In a case where the kidneys of E13.5 fetuses of both allele knock-in (homozygous) mice were collected, CID was added thereto, and the kidneys were cultured, it was confirmed that 90% or more of NPCs were removed by adding 100 nM of CID (see FIG. 10).

glomeruli = test: Nephron replacement: rat renal progenitor cells injected into homozygous fetal kidney, CID-added culture medium, then transplanted into immunodeficient mice; format: in vivo, mouse; settings: rat RPCs injected, day 14 after transplant into immunodeficient mice
Experimental: It was verified whether or not the replacement of nephron could be induced by transplanting the exogenous NPC at the same time as the removal of the NPC of the fetal kidney (see FIG. 20). In a case where renal progenitor cells (RPCs) of rats were injected into a homozygous fetal kidney and cultured in a CID-added culture medium, it was confirmed that at the time point of day 4, the renal progenitor cells adhered to the ureteral bud of the host and formed a chimeric cap mesenchyme (see FIG. 21). In addition, in a case where the cells were transplanted into immunodeficient mice after the cell injection and allowed to develop in vivo, it was confirmed that at the time point of day 14, the rat-derived cells differentiated into glomeruli and renal tubules, and approximately 80% of the glomeruli were replaced with rat-derived cells. A rat distal tubule connected to the collecting duct derived from the fetal mouse kidney was also confirmed (see FIG. 22).

nephron progenitor cells = test: Kidney organoid from nephron progenitor cells of Six2-iCaspase9-tdTomato mouse, CID administration; format: cell-based; settings: with CID administration
Experimental: Nephron progenitor cells were isolated from the Six2-iCaspase9-tdTomato mouse prepared in Experimental Example 1, and a kidney organoid was prepared by three-dimensional culture. AP20187 (hereinafter, referred to as CID) was administered to the kidney organoid.

NPCs [7] = test: Administration to heterozygous neonatal mice, CID alone or combined with AT406; format: in vivo, mouse
[8] = test system: Six2-positive nephron progenitor cells; test: Organ culture on Transwell of E11 fetal kidney of Six2-iCaspase9-tdTomato mouse with CID in medium; format: cell-based; settings: for Expression of tdTomato fluorescence in nephron progenitor cells: second day after administration
Experimental: The kidney was excised from an E11 fetus of the Six2-iCaspase9-tdTomato mouse prepared in Experimental Example 1, and organ culture was performed on a Transwell. In the group in which AP20187 (CID) was administered to the culture medium, the expression of tdTomato fluorescence in nephron progenitor cells was reduced on the second day after administration (see FIG. 4).

[9] = administration at E13.5, animal at 1 month of age
[10] = intraperitoneal to pregnant dam, homozygous fetuses

Structure (SMILES): CC[C@H](C(=O)N1CCCC[C@H]1C(=O)O[C@H](CCc1ccc(OC)c(OC)c1)c1cccc(OCC(=O)NCC(CNC(=O)COc2cccc([C@@H](CCc3ccc(OC)c(OC)c3)OC(=O)[C@@H]3CCCCN3C(=O)[C@@H](CC)c3cc(OC)c(OC)c(OC)c3)c2)CN(C)C)c1)c1cc(OC)c(OC)c(OC)c1 [CID, AP20187]
- Survival of animals after birth (NPCs [1]; administration at E11.5): died due to severe renal failure
- Survival of animals after birth (NPCs [1]; administration at E13.5): survival of animals was confirmed
- Serum urea nitrogen (BUN) compared with the control (NPCs [1]; [9]): significantly increased
- Urinary albumin-to-creatinine ratio (ACR) compared with the control (NPCs [1]; [9]): significantly increased
- Cap mesenchyme structure (nephrogenic niche formed by NPCs) (NPCs [1]; [10]): disrupted
- Kidney size of the neonates (P0) (NPCs [1]; [10]): reduced
- NPCs by immunostaining (NPCs [1]; [10]): disappearance of the NPCs was confirmed
- Number of glomeruli (NPCs [1]; [10]): decrease
- Nephron progenitor cell marker Six2 (immunostaining) in kidney [2]: disappeared; also recorded: removal of Six2-positive nephron progenitor cells in the neonatal kidney was observed
- Nephron progenitor cells (red, tdTomato fluorescence) in kidney [2]: disappeared due to apoptosis
- Nephron progenitor cells (red, tdTomato fluorescence) in kidney ([2]; listed as AP20187): removal of Six2-positive nephron progenitor cells in the neonatal kidney was observed
- NPC removal (NPCs [3]; 100 nM of CID alone, heterozygous fetal kidney culture): NPC removal was not confirmed
- Apoptosis by TUNEL staining, co-localization with Six2-positive nephron progenitor cells [4]: TUNEL positivity was observed
- NPC removal (NPCs [5]): NPC removal was confirmed
- NPCs removed (NPCs [6]): ≥ 90%
- Glomeruli replaced with rat-derived cells (glomeruli): approximately 80%
- Apoptosis of nephron progenitor cells (immunostained image) (nephron progenitor cells): subjected to apoptosis; also recorded: Induced cell death of nephron progenitor cells was observed
- NPC removal (NPCs [7]): NPC removal does not occur
- Removal of Six2-positive nephron progenitor cells (immunostaining) ([8]; day 3): removal of Six2-positive nephron progenitor cells was confirmed
- Expression of tdTomato fluorescence in nephron progenitor cells [8]: removal of nephron progenitor cells
- Expression of tdTomato fluorescence in nephron progenitor cells ([8]; listed as AP20187): reduced

Structure (SMILES): CN[C@@H](C)C(=O)N[C@H]1CN(C(=O)CC(C)C)CC[C@H]2CC[C@@H](C(=O)NC(c3ccccc3)c3ccccc3)N2C1=O [AT406]
- NPC removal (NPCs [3]; single administration of AT406, heterozygous fetal kidney culture): NPC removal did not occur
